Measured values: patent US7432303B2, “Chalcone and its analogs as agents for the inhibition of angiogenesis and related disease states” (James and Emory University, priority 1999, dated 2008)

System: SVR cells
Experiment: SVR cell assay: cell numbers counted at 48 hours, percent inhibition versus control
Assay type: cell-based, murine
Conditions: 10,000 SVR cells in 24 well dish, counted at 48 hours; for inhibition at 1 µg/mL / inhibition at 3 µg/mL / inhibition at 6 µg/mL / inhibition at 9 µg/mL: Mus musculus; for inhibition at 1 µg/mL / Percent Inhibition at a Specified Density (μg/ml): 1: 1 μg/ml; for inhibition at 1 µg/mL: read-out: Percent Inhibition at a Specified Density (μg/ml): 1; for inhibition at 3 µg/mL / Percent Inhibition at a Specified Density (μg/ml): 3: 3 μg/ml; for inhibition at 3 µg/mL: read-out: Percent Inhibition at a Specified Density (μg/ml): 3; for inhibition at 6 µg/mL / Percent Inhibition at a Specified Density (μg/ml): 6: 6 μg/ml; for inhibition at 6 µg/mL: read-out: Percent Inhibition at a Specified Density (μg/ml): 6; for Percent Inhibition at a Specified Density (μg/ml): 9 / inhibition at 9 µg/mL: 9 μg/ml; for inhibition at 9 µg/mL: read-out: Percent Inhibition at a Specified Density (μg/ml): 9
Experimental: In the case of testing the anti-angiogenic/anti-cancer activity of compounds according to the present invention, an assay based on SVR cells may be employed. […] The cell numbers are counted and compared against controls. Percent inhibition is readily determined from the data obtained.
10,000 SVR cells were seeded in a 24 well dish [Arbiser, et al., J. Am. […] The cell numbers were counted at 48 hours.

Compound	inhibition at 1 µg/mL	inhibition at 3 µg/mL	inhibition at 6 µg/mL	Percent Inhibition at a Specified Density (μg/ml): 3	Percent Inhibition at a Specified Density (μg/ml): 6	Percent Inhibition at a Specified Density (μg/ml): 9	Percent Inhibition at a Specified Density (μg/ml): 1	inhibition at 9 µg/mL
O=C(/C=C/c1c(F)c(F)c(F)c(F)c1F)c1ccccc1 [Compound 35, 2,3,4,5,6-Pentafluorochalcone]	0%	0%	0%	–	–	–	–	–
O=c1ccoc2ccccc12 [Compound 15, Chromone, reference compound]	20.6%	8.2%	20.8%	–	–	–	–	–
COc1ccc(/C=C/C(=O)c2ccc(OC)cc2)cc1 [Compound 2, 4,4′-Dimethoxychalcone]	29.1%	63.4%	85.2%	–	–	–	–	–
O=C(/C=C/c1ccc(Cl)cc1)c1ccc(Cl)cc1 [Compound 19, 4,4′-Dichlorochalcone]	13.8%	11.7%	31.1%	–	–	–	–	–
2-(2-Naphthylidene)tetralone [Compound 71]	–	–	–	82.8%	88.7%	87.1%	–	–
O=C(C=Cc1ccccc1)c1c2ccccc2cc2ccccc12 [Compound 51, 1-(9-Anthryl)-3-phenylpropenone]	–	–	–	46.4%	69.0%	–	25.5%	–
O=C(/C=C/c1c(Cl)cccc1Cl)c1ccccc1 [Compound 31, 2,6-Dichlorochalcone]	–	92.9%	97.5%	–	–	–	–	97.9%
O=C(C=Cc1ccccc1)c1ccc[nH]1 [Compound 49, 3-Phenyl-1-(2-pyrrolyl)propenone]	–	–	–	11.4%	19.4%	–	8.3%	–
O=C(C=Cc1ccc2ccccc2c1)c1cccc2ccccc12 [Compound 64, 1-(1-Naphthyl)-3-(2-naphthyl)propenone]	–	–	–	22.4%	52.0%	–	0.0%	–
O=C(C=Cc1ccco1)c1ccccc1 [Compound 45, 3-(2-Furyl)-1-phenylpropenone]	–	–	–	1.0%	0.0%	–	9.8%	–
O=c1cc(-c2ccccc2)oc2ccccc12 [Compound 14, Flavone, reference compound]	19.3%	26.3%	46.7%	–	–	–	–	–
Cc1ccc(C(=O)/C=C/c2c(Cl)cccc2Cl)cc1 [Compound 28, 2,6-Dichloro-4′-methylchalcone]	73.7%	98.2%	98.1%	–	–	–	–	–
O=C(C=Cc1ccccc1)c1cccc2ccccc12 [Compound 58, 1-(1-Naphthyl)-3-phenylpropenone]	–	–	–	33.2%	68.0%	–	10.9%	–
O=C1C(=Cc2ccccc2)C(=O)c2ccccc21 [Compound 8, 2-(Benzylidene)-1,3-indanedione]	91.1%	14%	34%	–	–	–	–	–
O=C(C=Cc1ccc[nH]1)c1ccccc1 [Compound 50, 1-Phenyl-3-(2-pyrrolyl)propenone]	–	–	–	21.5%	0.0%	–	19.0%	–
Cc1ccc(C(=O)/C=C/c2ccc(OCc3ccccc3)cc2)cc1 [Compound 24, 4-Benzyloxy-4′-methylchalcone]	18.4%	5.1%	17%	–	–	–	–	–
O=C(C=Cc1cccnc1)c1ccccc1 [Compound 48, 1-Phenyl-3-(3-pyridyl)propenone]	–	–	–	31.7%	83.2%	–	30.0%	–
CC(=O)c1cc2ccccc2oc1=O [Compound 13, 3-Acetylcoumarin, reference compound]	26%	4.9%	13%	–	–	–	–	–
COc1cccc(OC)c1C(=O)/C=C/c1ccccc1 [Compound 38, 2′,6′-Dimethoxychalcone]	25.8%	39.8%	63.5%	–	–	–	–	–
O=C(/C=C/c1c(Cl)cccc1Cl)c1c(Cl)cccc1Cl [Compound 32, 2,2′,6,6′-Tetrachlorochalcone]	–	74.9%	97%	–	–	–	–	98.1%
O=C(C=Cc1c2ccccc2cc2ccccc12)c1ccccc1 [Compound 52, 3-(9-Anthryl)-1-phenylpropenone]	–	–	–	53.5%	71.3%	–	54.6%	–

Compound	inhibition at 1 µg/mL	inhibition at 3 µg/mL	inhibition at 6 µg/mL	Percent Inhibition at a Specified Density (μg/ml): 3	Percent Inhibition at a Specified Density (μg/ml): 6	Percent Inhibition at a Specified Density (μg/ml): 9	Percent Inhibition at a Specified Density (μg/ml): 1	inhibition at 9 µg/mL
O=C(/C(Br)=C/c1ccccc1)c1ccccc1 [Compound 41, α-Bromo-Z-chalcone]	–	–	–	75.7%	79.8%	–	57.2%	–
Cc1ccc(/C=C/C(=O)c2ccc(C)cc2)cc1 [Compound 20, 4,4′-Dimethylchalcone]	36.6%	67.3%	89.5%	–	–	–	–	–
Cc1ccc(C(=O)/C=C/c2ccc(C(C)C)cc2)cc1 [Compound 26, 4-Isopropyl-4′-methylchalcone]	19.5%	14.2%	59.2%	–	–	–	–	–
COc1cccc(OC)c1/C=C/C(=O)c1ccccc1 [Compound 39, 2,6-Dimethoxychalcone]	31.8%	56.4%	60.8%	–	–	–	–	–
O=C(C=Cc1ccco1)c1ccco1 [Compound 43, 1,3-Bis(2-furyl)propenone]	–	–	–	8.1%	12.0%	–	7.7%	–
O=C1C(=Cc2ccccc2)CCCC1=Cc1ccccc1 [Compound 75, 2,6-Di(benzylidene)cyclohexanone]	–	91.3%	92.8%	–	–	–	–	97.4%
O=C(C=Cc1ccc2ccccc2c1)c1ccccc1 [Compound 62, 3-(2-Naphthyl)-1-phenylpropenone]	–	–	–	29.5%	44.3%	69.1%	–	–
O=C(C=Cc1ccc2ccccc2c1)c1c2ccccc2cc2ccccc12 [Compound 54, 1-(9-Anthryl)-3-(2-naphthyl)propenone]	–	–	–	57.3%	48.1%	–	52.5%	–
O=C(C=Cc1ccc2ccccc2c1)c1ccc2ccccc2c1 [Compound 60, 1,3-Di(2-naphthyl)propenone]	–	–	–	13.2%	20.3%	27.1%	–	–
Cc1ccc(C(=O)/C=C/c2ccc(Cl)cc2Cl)cc1 [Compound 27, 2,4-Dichloro-4′-methylchalcone]	19.9%	10.4%	84.6%	–	–	–	–	–
O=C1C(=Cc2ccccc2)COc2ccccc21 [Compound 66, 3-Benzylidene-4-chromanone]	12.3%	23.8%	54.3%	–	–	–	–	–
Cc1ccc(/C=C/C(=O)c2ccc(Cl)cc2)cc1 [Compound 29, 4′-Chloro-4-methylchalcone]	29.9%	40.2%	58.5%	–	–	–	–	–
O=C(C=Cc1cccc2ccccc12)c1ccc2ccccc2c1 [Compound 63, 1-(2-Naphthyl)-3-(1-naphthyl)propenone]	–	–	–	24.9%	50.3%	–	0.0%	–
O=C(C=Cc1ccccc1)c1ccco1 [Compound 44, 1-(2-Furyl)-3-phenylpropenone]	–	–	–	57.7%	90.2%	–	28.2%	–
O=C1CCCCC1=Cc1ccccc1 [Compound 7, 2-(Benzylidene)cyclohexanone]	23%	29.5%	72.4%	–	–	–	–	–
O=C(/C=C/c1c(F)c(F)c(F)c(F)c1F)c1c(F)c(F)c(F)c(F)c1F [Compound 34, 2,2′,3,3′,4,4′,5,5′,6,6′-Decafluorochalcone]	31.1%	88.6%	88.6%	–	–	–	–	–
O=C1C(=C2C=CC=CN2)CCCC1=C1C=CC=CN1 [Compound 79, 2,6-Di(2-pyridylidene)cyclohexanone]	88.3%	92.9%	96.7%	–	–	–	–	–
Cc1ccc(C(=O)/C=C/c2ccccc2)c(C)c1 [Compound 22, 2′,4′-Dimethylchalcone]	41.7%	80.4%	87.2%	–	–	–	–	–
O=C1C(=Cc2ccccc2)CCC1=Cc1ccccc1 [Compound 4, 2,5-(Dibenzylidene)cyclopentanone]	–	–	–	23.8%	38.6%	–	19.6%	–
COc1cccc(OC)c1C(=O)/C=C/c1c(Cl)cccc1Cl [Compound 40, 2,6-Dichloro-2′,6′-dimethoxychalcone]	23.2%	43.7%	52.3%	–	–	–	–	–
